Measured values taken from PubChem BioAssay AID2060615 (Molecular Pharmacology Branch, DTP, NCI, 2025).

System: 496974-208-R-J2-PDC complex spheroids, growth % test/control
Assay: Anticancer human tumor 496974-208-R-J2-PDC patient-derived pancreatic carcinoma cell line growth inhibition [CLK]
Details: for IC50: curve of first compound; for viability, T/C: stronger effect = lower value; active = viability on the fitted dose curve at most 10% of control; inactive = the rest
Procedure, shortened: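 Multi-cell-type spheroids combined patient-derived tumor cells with HUVEC endothelial cells and human mesenchymal stem cells. Paired agents were dosed in half-log steps down from about clinical Cmax, or from 10 microM where Cmax was unknown.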
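Note: spheroids exposed to the drugs for 7 days before readout.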
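Throughout, for viability, T/C: 100% = DMSO vehicle control wells.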

NC(=O)C(=Cn1cnc(-c2cc(C(F)(F)F)cc(C(F)(F)F)c2)n1)c1cncnc1 + CNC(=O)c1ccc(Nc2nc(OC3CCCC3)c3c(-c4ccc5nc(C)oc5c4)c[nH]c3n2)c(OC)c1
inactive: viability, T/C (second compound 0.0316 µM, first compound 0.00949 µM) 83.3% | viability, T/C (second compound 0.0316 µM, first compound 0.03 µM) 77.3% | viability, T/C (second compound 0.0316 µM, first compound 0.0949 µM) 65.1% | viability, T/C (second compound 0.0316 µM, first compound 0.3 µM) 31.4% | viability, T/C (second compound 0.0316 µM, first compound 0.949 µM) 20.5% | viability, T/C (second compound 0.0316 µM, first compound 3 µM) 14.1% | viability, T/C (second compound 0.1 µM, first compound 0.00949 µM) 68.5% | viability, T/C (second compound 0.1 µM, first compound 0.03 µM) 56.3% | viability, T/C (second compound 0.1 µM, first compound 0.0949 µM) 52% | viability, T/C (second compound 0.1 µM, first compound 0.3 µM) 27.9% | viability, T/C (second compound 0.1 µM, first compound 0.949 µM) 20.9% | viability, T/C (second compound 0.1 µM, first compound 3 µM) 16.8% | viability, T/C (second compound 0.316 µM, first compound 0.00949 µM) 47.2% | viability, T/C (second compound 0.316 µM, first compound 0.03 µM) 48.6% | viability, T/C (second compound 0.316 µM, first compound 0.0949 µM) 43.9% | viability, T/C (second compound 0.316 µM, first compound 0.3 µM) 21.4% | viability, T/C (second compound 0.316 µM, first compound 0.949 µM) 18.8% | viability, T/C (second compound 0.316 µM, first compound 3 µM) 12.4% | viability, T/C (second compound 1 µM, first compound 0.00949 µM) 46.6% | viability, T/C (second compound 1 µM, first compound 0.03 µM) 40.6% | viability, T/C (second compound 1 µM, first compound 0.0949 µM) 29.8% | viability, T/C (second compound 1 µM, first compound 0.3 µM) 16.1% | viability, T/C (second compound 1 µM, first compound 0.949 µM) 14.3% | viability, T/C (second compound 1 µM, first compound 3 µM) 9.67% | viability, T/C (second compound 3.16 µM, first compound 0.00949 µM) 44.9% | viability, T/C (second compound 3.16 µM, first compound 0.03 µM) 28.7% | viability, T/C (second compound 3.16 µM, first compound 0.0949 µM) 20.2% | viability, T/C (second compound 3.16 µM, first compound 0.3 µM) 12.1% | viability, T/C (second compound 10 µM, first compound 0.00949 µM) 39.4% | viability, T/C (second compound 10 µM, first compound 0.03 µM) 28.8% | viability, T/C (second compound 10 µM, first compound 0.0949 µM) 19.1% | viability, T/C (second compound 10 µM, first compound 0.3 µM) 9.35%
< 0.00949 µM: IC50 (second compound 0.316 µM) | IC50 (second compound 1 µM) | IC50 (second compound 3.16 µM) | IC50 (second compound 10 µM)
active: viability, T/C (second compound 3.16 µM, first compound 0.949 µM) 10.8% | viability, T/C (second compound 3.16 µM, first compound 3 µM) 5.23% | viability, T/C (second compound 10 µM, first compound 0.949 µM) 8.25% | viability, T/C (second compound 10 µM, first compound 3 µM) 3.76%
0.0816 µM: IC50 (second compound 0.1 µM)
0.158 µM: IC50 (second compound 0.0316 µM)

Nc1ccccc1NC(=O)c1ccc(CNC(=O)OCc2cccnc2)cc1 + CNC(=O)c1ccc(Nc2nc(OC3CCCC3)c3c(-c4ccc5nc(C)oc5c4)c[nH]c3n2)c(OC)c1
3.34 µM: IC50 (second compound 3.16 µM) | IC50 (second compound 10 µM)
inactive: viability, T/C (second compound 0.0316 µM, first compound 0.0316 µM) 92.7% | viability, T/C (second compound 0.0316 µM, first compound 0.1 µM) 92.8% | viability, T/C (second compound 0.0316 µM, first compound 0.316 µM) 89.9% | viability, T/C (second compound 0.0316 µM, first compound 1 µM) 78% | viability, T/C (second compound 0.0316 µM, first compound 3.16 µM) 75.3% | viability, T/C (second compound 0.1 µM, first compound 0.0316 µM) 81.8% | viability, T/C (second compound 0.1 µM, first compound 0.1 µM) 72.5% | viability, T/C (second compound 0.1 µM, first compound 0.316 µM) 66.3% | viability, T/C (second compound 0.1 µM, first compound 1 µM) 61.4% | viability, T/C (second compound 0.1 µM, first compound 3.16 µM) 73.6% | viability, T/C (second compound 0.316 µM, first compound 0.0316 µM) 78.6% | viability, T/C (second compound 0.316 µM, first compound 0.1 µM) 72.9% | viability, T/C (second compound 0.316 µM, first compound 0.316 µM) 74.2% | viability, T/C (second compound 0.316 µM, first compound 1 µM) 56.1% | viability, T/C (second compound 0.316 µM, first compound 3.16 µM) 69.2% | viability, T/C (second compound 1 µM, first compound 0.0316 µM) 69.1% | viability, T/C (second compound 1 µM, first compound 0.1 µM) 65.1% | viability, T/C (second compound 1 µM, first compound 0.316 µM) 67.8% | viability, T/C (second compound 1 µM, first compound 1 µM) 58.5% | viability, T/C (second compound 1 µM, first compound 3.16 µM) 68.6% | viability, T/C (second compound 3.16 µM, first compound 0.0316 µM) 63.5% | viability, T/C (second compound 3.16 µM, first compound 0.1 µM) 59.2% | viability, T/C (second compound 3.16 µM, first compound 0.316 µM) 55% | viability, T/C (second compound 3.16 µM, first compound 1 µM) 49.7% | viability, T/C (second compound 3.16 µM, first compound 3.16 µM) 53.5% | viability, T/C (second compound 10 µM, first compound 0.0316 µM) 60.2% | viability, T/C (second compound 10 µM, first compound 0.1 µM) 53.4% | viability, T/C (second compound 10 µM, first compound 0.316 µM) 52.1% | viability, T/C (second compound 10 µM, first compound 1 µM) 42.9% | viability, T/C (second compound 10 µM, first compound 3.16 µM) 53.2%
4.52 µM: IC50 (second compound 0.0316 µM)
4.23 µM: IC50 (second compound 1 µM)
active: viability, T/C (second compound 0.0316 µM, first compound 10 µM) 0.72% | viability, T/C (second compound 0.1 µM, first compound 10 µM) 3.35% | viability, T/C (second compound 0.316 µM, first compound 10 µM) 1.48% | viability, T/C (second compound 1 µM, first compound 10 µM) 3% | viability, T/C (second compound 3.16 µM, first compound 10 µM) 4.03% | viability, T/C (second compound 10 µM, first compound 10 µM) 4.38%
4.36 µM: IC50 (second compound 0.316 µM)
4.53 µM: IC50 (second compound 0.1 µM)
